# According to patent US20080113016A1, “Method for Prevention or Treatment of Inflammatory Disease” (priority 2004, published 2008):
# Entries after “also recorded” stand apart in the source; their conditions may differ. Like-named read-outs stand apart in the source and are kept apart here. Marks after values point to notes of the source that are not given here.
# What was measured:
# [1] = tested on: rats with adjuvant arthritis; experiment: Adjuvant arthritis: histologic joint damage, semiquantitative score; type: in vivo, rat
# Experimental: Rats were immunized with CFA on day 0 and treated daily with intrathecal SB203580 (8 μg) or intrathecal saline beginning on day 8-20. Left panel is vehicle and right panel is SB203580. […] Representative sections are shown illustrating decreased erosions, cartilage damage and synovial inflammation in the treated group.
# Adjuvant arthritis. Male Lewis rats (150-200 g) were immunized at the base of the tail with 0.1 ml of complete Freund's adjuvant (CFA) on day 0. Drug (IT or subcutaneous SB203580 or IT vehicle) treatment started on day 8 and continued on a daily basis until day 20. Clinical signs of arthritis generally begin on day 10, and paw swelling was determined every second day by water displacement plethysmometry. […] Prior to daily drug delivery, rats were individually assessed for ability to walk and bear weight on their hind paws. On the day of sacrifice, a probe with a 24 gm bending force was applied to the lateral ankle of each hind paw for 4 s. Animals were graded (0/1) on whether they vocalized. […]
# [2] = tested on: rats with adjuvant arthritis; experiment: Adjuvant arthritis: radiographic joint damage, semiquantitative score; type: in vivo, rat
# Experimental: (§1) Adjuvant arthritis. Male Lewis rats (150-200 g) were immunized at the base of the tail with 0.1 ml of complete Freund's adjuvant (CFA) on day 0. […] Clinical signs of arthritis generally begin on day 10, and paw swelling was determined every second day by water displacement plethysmometry. […] Prior to daily drug delivery, rats were individually assessed for ability to walk and bear weight on their hind paws. On the day of sacrifice, a probe with a 24 gm bending force was applied to the lateral ankle of each hind paw for 4 s. Animals were graded (0/1) on whether they vocalized. Roentgenograms were obtained of the hind paws to assess bone changes using a semi-quantitative scoring system (demineralization (0 to 2+), ankle and mid-foot erosions (0 to 2+), calcaneal erosion (0 to 1+), heterotopic bone formation (0 to 1+) (maximum possible score=6). Paws were fixed in formalin and decalcified for 2-3 days. Sections from paraffin embedded tissue were stained with hematoxylin and eosin. A synovial inflammation score was determined using a semi-quantitative scale that measures synovial inflammation (0-2+), cartilage integrity (0-2+), bone erosions (0-2+), marrow infiltration (0-2+), proteoglycans loss (0-2+ in safranin 0 stained sections) and extra-articular inflammation (0-2+) (maximum score 12). Subjective assessments were made by an investigator blinded to the drug treatment.
# [3] = tested on: rats with adjuvant arthritis; experiment: Adjuvant arthritis: behavioral pain (vocalization to 24 gm ankle pressure); type: in vivo, rat; settings: 24 gm bending force to lateral ankle for 4 s on day 20
# Excerpt: The effect of IT SB203580 on the clinical manifestations of adjuvant arthritis was examined. […] Paw swelling was inversely correlated with behavioral analysis as determined by weight bearing in hind limbs.
# (§2) Intrathecal (IT) catherization of rats. All animals were handled in accordance with USDA guidelines, and all procedures have been carefully reviewed and approved by the institutional animal subjects committee. Rats (200-300 g) were housed for at least one week before use. Isoflurane anesthesia was used for all surgical procedures. Animals were implanted with an intrathecal (IT) catheter modified from the method previously described. Yaksh, et al. Physiol. Behav. 17:1031-6, 1976. After a six day recovery period, all animals except those that appeared to have sensory or motor abnormalities (less than 5% of the total number) were used for experiments. For IT administration, 10 μl of drug or vehicle followed by 10 μl of isotonic saline was injected through the catheter.
# Adjuvant arthritis. Male Lewis rats (150-200 g) were immunized at the base of the tail with 0.1 ml of complete Freund's adjuvant (CFA) on day 0. […] Clinical signs of arthritis generally begin on day 10, and paw swelling was determined every second day by water displacement plethysmometry. […] Prior to daily drug delivery, rats were individually assessed for ability to walk and bear weight on their hind paws. […]
# [4] = tested on: synovial IL-1, IL-6 and MMP3 gene expression; experiment: Adjuvant arthritis: joint gene expression by quantitative real time PCR; type: in vivo, rat; settings: intrathecal 8 μg daily day 8-20 vs IT saline, hind paws
# Experimental: Rats were immunized with CFA on day 0 and treated daily with intrathecal SB203580 (8 μg) or intrathecal saline beginning on day 8-20. (A) Quantitative real time PCR was performed on the hind paws. Normal rat joints are also shown as a control.
# Q-PCR. Ankle joints were excised and trimmed of skin. The tissue was then pulverized and RNA extracted using RNA-STAT-60 and standard techniques. The RNA was reversed transcribed into cDNA using random hexamer primers. TaqMan PCR amplification reactions were carried out in reaction volumes of 25 μl in MicroAmp Optical Plates and MicroAmp Optical Caps using the TaqMan Universal Master Mix with a Perkin Elmer 5700 thermal cycler. Each sample was analyzed in triplicate using 50 ng of cDNA in the reaction. Thermal cycling was initiated with a 2 min incubation at 50° C., followed by 10 min at 95° C. to activate the AmpliTaq polymerase and then 40 cycles of 95° C. for 15 s/60° C. for 1 min. GADPH was used as a loading control for in each sample. The standard curve method was used for quantification as previously described. Boyle, et al. Arthritis Res. Ther. 5:R352-360, 2003.
# [5] = tested on: rats with adjuvant arthritis; experiment: Adjuvant arthritis: paw swelling by water displacement plethysmometry; type: in vivo, rat
# Experimental: […] Paw swelling was measured by water displacement plethysmometry.
# as §2, §1
# spinal nerve ligation = settings: administered intrathecally before spinal nerve ligation, cited from earlier work
# [6] = intrathecal etanercept 100 or 300 μg q.o.d.
Compound,Histologic joint damage and inflammation (semiquantitative score) ([1]; intrathecal 8 μg daily day 8-20 vs IT saline),Leukocyte infiltration into synovium ([1]; intrathecal catheter administration),"Radiographic joint damage (bone erosions, cartilage loss, demineralization) ([2]; intrathecal 8 μg daily day 8-20, p<0.05)","Radiographic joint damage ([2]; systemic (subcutaneous) treatment, same dose 8 μg)",Positive vocalization (animals that vocalize / total number) ([3]; intrathecal (IT) SB203580 8 μg daily day 8-20),Positive vocalization (animals that vocalize / total number) ([3]; subcutaneous (SC) SB203580 8 μg daily day 8-20),Synovial IL-1 gene expression [4],Synovial IL-6 gene expression [4],MMP3 gene expression ([4]; p<0.05),"Paw swelling ([5]; intrathecal 8 μg daily day 8-20, compared with IT saline or same dose subcutaneously)","Effect in adjuvant arthritis (paw swelling, synovial infiltration, joint destruction) ([5]; same dose (8 μg) delivered systemically (subcutaneous))","Radiographic evidence of joint destruction [2, 6]","Paw swelling [5, 6]","Paw swelling ([5]; subcutaneous 50 μg every other day from day 1, day 20) [mL]","Paw swelling ([5]; subcutaneous 100 μg every other day from day 1, day 20) [mL]","Paw swelling ([5]; subcutaneous 300 μg every other day from day 1, day 20) [mL]",Paw swelling on day 20 ([5]; systemic treatment with the same doses as intrathecal),Allodynia (spinal nerve ligation),Increase in spinal cord P-p38 / p38 activation (spinal nerve ligation),Increase in spinal cord P-p38 / p38 activation (spinal nerve ligation; listed as etanercept)
C[S+]([O-])c1ccc(-c2nc(-c3ccncc3)c(-c3ccc(F)cc3)[nH]2)cc1 (centres unmarked) [SB203580],significantly decreased,decreased,significantly decreased,no effect,0/6**,4/6,significantly decreased,significantly decreased,significantly decreased,significantly decreased; also recorded: markedly suppressed,no effect,,,,,,,,,
Etanercept,,,,,,,,,,,,significantly decreased,significantly decreased,1.51 ± 0.20,1.75 ± 0.18,1.67 ± 0.16,no effect,inhibits,blocks,inhibits
